Measured values taken from paper PMC10765884, “MC180295 is a highly potent and selective CDK9 inhibitor with preclinical in vitro and in vivo efficacy in cancer” (Clinical Epigenetics, 2024).

What was measured:
[1] = system: MV4-11; experiment: Growth inhibition (cell counting, day 5); type: cell-based; settings: Homo sapiens, Leukemia
Experimental: (§1) The live-cell assay for GFP reactivation in YB5 cells was done as previously described. Cells were treated with a single dose of drug 24 h after seeding at low density, and GFP fluorescence measured in a Millipore Guava flow cytometer (EMD, Millipore) instrument, or by imaging in a Cytation instrument (Agilent). Cancer cell lines (listed in Additional file 1: Fig. S1A) were obtained from ATCC or the Temple/Fox Chase Cellular Repository and cultured in the recommended medium. To measure growth inhibition, cells were seeded in 96-well plates at 40% confluency. Fresh medium was changed the next day and drugs were added directly. Drug-free fresh medium was changed on the fourth day. The cells were collected on day 5 by trypsin, suspended in medium, mixed with trypan blue (Thermo Fisher Scientific) (1:1 ratio), and counted using a LUNA II automated cell counter. Each sample was counted at least three times, and average numbers used for the analysis. Each treatment condition was performed in biological triplicates.

[2] = system: HS936T; experiment: Growth inhibition (cell counting, day 5); type: cell-based; settings: Melanoma
Experimental: as §1

[3] = system: J-Tag; experiment: Growth inhibition (cell counting, day 5); type: cell-based; settings: Leukemia
Experimental: as §1

[4] = system: MALME-3M; experiment: Growth inhibition (cell counting, day 5); type: cell-based; settings: Homo sapiens, Melanoma
Experimental: as §1

[5] = system: MCF7; experiment: Growth inhibition (cell counting, day 5); type: cell-based; settings: Homo sapiens, Breast
Experimental: as §1

[6] = system: K562; experiment: Growth inhibition (cell counting, day 5); type: cell-based; settings: Homo sapiens, Leukemia
Experimental: as §1

[7] = system: Cama-1; experiment: Growth inhibition (cell counting, day 5); type: cell-based; settings: Homo sapiens, Breast
Experimental: as §1

[8] = system: OCI-AML3; experiment: Growth inhibition (cell counting, day 5); type: cell-based; settings: Homo sapiens, OCI-AML-3; Leukemia
Experimental: as §1

[9] = system: KG-1a; experiment: Growth inhibition (cell counting, day 5); type: cell-based; settings: Homo sapiens, Leukemia
Experimental: as §1

[10] = system: SW48; experiment: Growth inhibition (cell counting, day 5); type: cell-based; settings: Homo sapiens, Colon
Experimental: as §1

[11] = system: CT26.CL25; experiment: Growth inhibition (cell counting, day 5); type: cell-based; settings: Mus musculus; Colon
Experimental: as §1

[12] = system: LOVO; experiment: Growth inhibition (cell counting, day 5); type: cell-based; settings: Homo sapiens, Colon
Experimental: as §1

[13] = system: Jurkat; experiment: Growth inhibition (cell counting, day 5); type: cell-based; settings: Homo sapiens, Leukemia
Experimental: as §1

[14] = system: sk-mel28; experiment: Growth inhibition (cell counting, day 5); type: cell-based; settings: Homo sapiens, SK-MEL-28; Melanoma
Experimental: as §1

[15] = system: A2058; experiment: Growth inhibition (cell counting, day 5); type: cell-based; settings: Homo sapiens, Melanoma
Experimental: as §1

[16] = system: WM3918; experiment: Growth inhibition (cell counting, day 5); type: cell-based; settings: Melanoma
Experimental: as §1

[17] = system: HCCC1937; experiment: Growth inhibition (cell counting, day 5); type: cell-based; settings: Breast
Experimental: as §1

[18] = system: DU145; experiment: Growth inhibition (cell counting, day 5); type: cell-based; settings: Homo sapiens, DU-145; Prostate
Experimental: as §1

[19] = system: HTB126; experiment: Growth inhibition (cell counting, day 5); type: cell-based; settings: Breast
Experimental: as §1

[20] = system: BT474; experiment: Growth inhibition (cell counting, day 5); type: cell-based; settings: Homo sapiens, BT-474; Breast
Experimental: as §1

[21] = system: MOLM-13; experiment: Growth inhibition (cell counting, day 5); type: cell-based; settings: Homo sapiens, Leukemia
Experimental: as §1

[22] = system: UC3; experiment: Growth inhibition (cell counting, day 5); type: cell-based; settings: Bladder
Experimental: as §1

[23] = system: HCC2218; experiment: Growth inhibition (cell counting, day 5); type: cell-based; settings: Homo sapiens, Breast
Experimental: as §1

[24] = system: HT29; experiment: Growth inhibition (cell counting, day 5); type: cell-based; settings: Homo sapiens, HT-29; Colon
Experimental: as §1

[25] = system: A375; experiment: Growth inhibition (cell counting, day 5); type: cell-based; settings: Homo sapiens, A-375; Melanoma
Experimental: as §1

[26] = system: BT549; experiment: Growth inhibition (cell counting, day 5); type: cell-based; settings: Homo sapiens, BT-549; Breast
Experimental: as §1

[27] = system: LnCap; experiment: Growth inhibition (cell counting, day 5); type: cell-based; settings: Homo sapiens, Prostate
Experimental: as §1

[28] = system: SW480; experiment: Growth inhibition (cell counting, day 5); type: cell-based; settings: Homo sapiens, Colon
Experimental: as §1

[29] = system: WM3912; experiment: Growth inhibition (cell counting, day 5); type: cell-based; settings: Melanoma
Experimental: as §1

[30] = system: UC16; experiment: Growth inhibition (cell counting, day 5); type: cell-based; settings: Bladder
Experimental: as §1

[31] = system: Raji; experiment: Growth inhibition (cell counting, day 5); type: cell-based; settings: Homo sapiens, Leukemia
Experimental: as §1

[32] = system: VACCC257; experiment: Growth inhibition (cell counting, day 5); type: cell-based; settings: Melanoma
Experimental: as §1

[33] = system: M14; experiment: Growth inhibition (cell counting, day 5); type: cell-based; settings: Homo sapiens, Melanoma
Experimental: as §1

[34] = system: CaCO2; experiment: Growth inhibition (cell counting, day 5); type: cell-based; settings: Homo sapiens, Caco-2; Colon
Experimental: as §1

[35] = system: HCT116; experiment: Growth inhibition (cell counting, day 5); type: cell-based; settings: Homo sapiens, HCT-116; Colon
Experimental: as §1

[36] = system: THP-1; experiment: Growth inhibition (cell counting, day 5); type: cell-based; settings: Homo sapiens, Leukemia
Experimental: as §1

[37] = system: UC6; experiment: Growth inhibition (cell counting, day 5); type: cell-based; settings: Bladder
Experimental: as §1

[38] = molecular target: T1, CDK9/cyclin T2 (Homo sapiens, UniProt P50750); experiment: CDK enzymatic assay; type: biochemical; settings: Fig. 1A
T1 construct: purchased Reaction Biology Corp
Experimental: (§2) CDK enzymatic assays were performed by Reaction Biology Corp. (Malvern, PA), using 10 µM ATP for determining MC180295 IC50 values for each CDK family member for which assays were available. Kinase enzymatic assays were also performed by Nanosyn (Santa Clara, CA), using microfluidic technology and MC180295 IC50 curves against 10 CDKs. Selectivity against CDK9 was confirmed for the enantiomers at Reaction Biology Corp. (Malvern, PA).

[39] = molecular target: T2, CDK9/cyclin K (Homo sapiens, UniProt P50750); experiment: CDK enzymatic assay; type: biochemical; settings: Fig. 1A
T2 construct: purchased Reaction Biology Corp
Experimental: as §2

[40] = molecular target: T3, CDK8/cyclin C (Homo sapiens, UniProt P49336); experiment: CDK enzymatic assay; type: biochemical; settings: Fig. 1A
T3 construct: purchased Reaction Biology Corp
Experimental: as §2

[41] = molecular target: T4, CDK3/cyclin E2 (Homo sapiens, UniProt Q00526); experiment: CDK enzymatic assay; type: biochemical; settings: Fig. 1A
T4 construct: purchased Reaction Biology Corp
Experimental: as §2

[42] = molecular target: T5, CDK17/cyclin Y (PCTK2) (Homo sapiens, UniProt Q00537); experiment: CDK enzymatic assay; type: biochemical; settings: Fig. 1A
T5 construct: purchased Reaction Biology Corp
Experimental: as §2

[43] = molecular target: T6, CDK16/cyclin Y (PCTAIRE) (Homo sapiens, UniProt Q00536); experiment: CDK enzymatic assay; type: biochemical; settings: Fig. 1A
T6 construct: purchased Reaction Biology Corp
Experimental: as §2

T1 sequence (P50750 whole entry): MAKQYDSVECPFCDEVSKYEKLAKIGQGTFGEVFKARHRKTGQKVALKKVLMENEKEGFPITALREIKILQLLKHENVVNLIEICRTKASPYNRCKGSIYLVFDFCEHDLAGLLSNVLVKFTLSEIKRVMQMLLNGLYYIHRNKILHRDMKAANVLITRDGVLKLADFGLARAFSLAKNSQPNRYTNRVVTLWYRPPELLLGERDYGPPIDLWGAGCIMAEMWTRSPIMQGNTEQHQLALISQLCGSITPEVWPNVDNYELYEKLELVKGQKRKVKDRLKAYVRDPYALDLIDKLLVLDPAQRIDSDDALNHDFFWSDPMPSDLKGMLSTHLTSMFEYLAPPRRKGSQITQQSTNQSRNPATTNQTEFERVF
T1 sequence (O60583 whole entry partner): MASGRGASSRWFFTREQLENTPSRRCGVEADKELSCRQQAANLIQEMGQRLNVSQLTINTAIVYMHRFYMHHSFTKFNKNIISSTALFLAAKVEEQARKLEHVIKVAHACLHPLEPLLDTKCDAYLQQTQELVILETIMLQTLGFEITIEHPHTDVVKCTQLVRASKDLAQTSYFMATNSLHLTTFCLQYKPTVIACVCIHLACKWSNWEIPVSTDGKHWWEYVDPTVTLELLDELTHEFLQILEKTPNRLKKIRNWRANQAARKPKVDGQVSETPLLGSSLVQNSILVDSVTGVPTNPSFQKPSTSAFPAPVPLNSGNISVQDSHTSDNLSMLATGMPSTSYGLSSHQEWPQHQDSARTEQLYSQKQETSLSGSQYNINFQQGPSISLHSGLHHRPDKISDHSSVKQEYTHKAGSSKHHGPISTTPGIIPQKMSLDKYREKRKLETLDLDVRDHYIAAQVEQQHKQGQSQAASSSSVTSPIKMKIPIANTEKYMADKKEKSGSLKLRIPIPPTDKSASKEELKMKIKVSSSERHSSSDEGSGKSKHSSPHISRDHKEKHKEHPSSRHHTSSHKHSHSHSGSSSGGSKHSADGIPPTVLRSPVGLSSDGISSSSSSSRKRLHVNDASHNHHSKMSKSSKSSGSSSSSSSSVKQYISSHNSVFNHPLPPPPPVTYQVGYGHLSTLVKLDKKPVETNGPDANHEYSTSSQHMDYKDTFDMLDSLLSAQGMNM
T2 sequence (P50750 whole entry): as the sequence (P50750 whole entry) above
T2 sequence (O75909 whole entry partner): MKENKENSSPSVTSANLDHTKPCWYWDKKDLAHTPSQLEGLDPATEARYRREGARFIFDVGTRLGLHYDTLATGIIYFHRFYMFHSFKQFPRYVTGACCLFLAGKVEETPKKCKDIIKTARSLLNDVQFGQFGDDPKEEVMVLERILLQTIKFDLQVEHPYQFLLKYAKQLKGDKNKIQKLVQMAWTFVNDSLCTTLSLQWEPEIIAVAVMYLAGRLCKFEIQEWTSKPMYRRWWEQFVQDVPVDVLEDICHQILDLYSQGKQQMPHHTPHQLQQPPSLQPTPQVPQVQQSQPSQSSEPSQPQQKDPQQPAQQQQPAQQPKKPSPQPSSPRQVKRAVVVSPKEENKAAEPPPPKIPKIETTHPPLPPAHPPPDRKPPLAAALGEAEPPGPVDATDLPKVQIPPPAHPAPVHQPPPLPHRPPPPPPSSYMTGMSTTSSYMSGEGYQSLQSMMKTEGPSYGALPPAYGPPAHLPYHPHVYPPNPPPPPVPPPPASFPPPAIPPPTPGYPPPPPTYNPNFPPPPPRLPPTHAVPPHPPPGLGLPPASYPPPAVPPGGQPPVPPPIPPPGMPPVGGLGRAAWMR
T4 sequence (Q00526 whole entry): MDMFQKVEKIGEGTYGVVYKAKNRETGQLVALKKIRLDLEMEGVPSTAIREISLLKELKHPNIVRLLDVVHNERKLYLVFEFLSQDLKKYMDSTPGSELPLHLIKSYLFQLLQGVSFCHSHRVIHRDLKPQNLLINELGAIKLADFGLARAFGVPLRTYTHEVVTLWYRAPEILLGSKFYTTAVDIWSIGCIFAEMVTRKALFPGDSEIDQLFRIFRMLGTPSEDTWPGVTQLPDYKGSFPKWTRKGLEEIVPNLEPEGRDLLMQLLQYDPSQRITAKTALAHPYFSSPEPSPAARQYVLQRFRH
T4 sequence (O96020 whole entry partner): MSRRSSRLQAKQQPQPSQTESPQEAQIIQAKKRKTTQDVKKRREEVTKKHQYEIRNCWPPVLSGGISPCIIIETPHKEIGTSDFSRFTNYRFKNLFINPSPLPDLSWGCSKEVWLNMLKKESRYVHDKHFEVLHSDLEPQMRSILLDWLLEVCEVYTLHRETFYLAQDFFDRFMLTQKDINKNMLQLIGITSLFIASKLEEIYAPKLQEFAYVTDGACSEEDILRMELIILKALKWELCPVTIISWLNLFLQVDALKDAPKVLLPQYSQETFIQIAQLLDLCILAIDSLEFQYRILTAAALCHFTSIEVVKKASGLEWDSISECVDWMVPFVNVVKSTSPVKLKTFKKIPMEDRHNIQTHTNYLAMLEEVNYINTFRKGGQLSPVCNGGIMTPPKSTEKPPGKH
T6 sequence (Q00536 whole entry): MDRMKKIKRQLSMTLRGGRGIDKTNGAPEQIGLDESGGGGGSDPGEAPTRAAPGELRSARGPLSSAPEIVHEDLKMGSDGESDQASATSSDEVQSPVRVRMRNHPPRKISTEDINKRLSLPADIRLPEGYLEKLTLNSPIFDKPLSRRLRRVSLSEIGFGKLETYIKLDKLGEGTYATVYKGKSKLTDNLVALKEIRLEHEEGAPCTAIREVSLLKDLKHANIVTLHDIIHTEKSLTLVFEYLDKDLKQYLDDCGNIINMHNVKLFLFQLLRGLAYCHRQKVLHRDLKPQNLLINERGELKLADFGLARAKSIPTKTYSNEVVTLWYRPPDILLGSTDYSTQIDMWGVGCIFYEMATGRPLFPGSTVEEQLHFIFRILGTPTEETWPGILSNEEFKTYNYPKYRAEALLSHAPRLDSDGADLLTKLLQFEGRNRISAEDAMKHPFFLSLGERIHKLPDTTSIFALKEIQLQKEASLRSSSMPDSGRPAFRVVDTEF
T6 sequence (Q8ND76 whole entry partner): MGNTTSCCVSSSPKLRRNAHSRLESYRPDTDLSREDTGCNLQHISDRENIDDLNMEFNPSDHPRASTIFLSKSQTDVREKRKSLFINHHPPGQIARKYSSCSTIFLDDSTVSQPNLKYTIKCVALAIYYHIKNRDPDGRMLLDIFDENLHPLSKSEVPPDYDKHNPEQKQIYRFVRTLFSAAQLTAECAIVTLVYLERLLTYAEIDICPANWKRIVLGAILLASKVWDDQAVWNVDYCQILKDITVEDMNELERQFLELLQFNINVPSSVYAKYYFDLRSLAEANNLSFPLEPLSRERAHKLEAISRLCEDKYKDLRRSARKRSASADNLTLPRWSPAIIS
T5 sequence (Q00537 whole entry): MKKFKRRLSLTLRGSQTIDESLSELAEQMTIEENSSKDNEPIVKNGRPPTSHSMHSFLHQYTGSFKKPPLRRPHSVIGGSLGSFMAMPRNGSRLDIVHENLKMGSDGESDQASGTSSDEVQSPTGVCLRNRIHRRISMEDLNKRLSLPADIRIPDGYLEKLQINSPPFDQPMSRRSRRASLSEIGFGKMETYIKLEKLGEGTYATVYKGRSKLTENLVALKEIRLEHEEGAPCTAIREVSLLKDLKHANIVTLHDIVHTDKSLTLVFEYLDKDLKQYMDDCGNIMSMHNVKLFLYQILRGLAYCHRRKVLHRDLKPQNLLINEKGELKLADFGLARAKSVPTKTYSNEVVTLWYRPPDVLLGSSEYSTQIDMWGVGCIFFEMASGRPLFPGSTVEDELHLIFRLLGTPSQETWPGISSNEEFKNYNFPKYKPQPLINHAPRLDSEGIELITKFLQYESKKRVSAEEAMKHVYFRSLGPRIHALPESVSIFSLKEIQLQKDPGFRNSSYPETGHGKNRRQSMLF
T5 sequence (Q8ND76 whole entry partner): as the sequence (Q8ND76 whole entry partner) above
T3 sequence (P49336 whole entry): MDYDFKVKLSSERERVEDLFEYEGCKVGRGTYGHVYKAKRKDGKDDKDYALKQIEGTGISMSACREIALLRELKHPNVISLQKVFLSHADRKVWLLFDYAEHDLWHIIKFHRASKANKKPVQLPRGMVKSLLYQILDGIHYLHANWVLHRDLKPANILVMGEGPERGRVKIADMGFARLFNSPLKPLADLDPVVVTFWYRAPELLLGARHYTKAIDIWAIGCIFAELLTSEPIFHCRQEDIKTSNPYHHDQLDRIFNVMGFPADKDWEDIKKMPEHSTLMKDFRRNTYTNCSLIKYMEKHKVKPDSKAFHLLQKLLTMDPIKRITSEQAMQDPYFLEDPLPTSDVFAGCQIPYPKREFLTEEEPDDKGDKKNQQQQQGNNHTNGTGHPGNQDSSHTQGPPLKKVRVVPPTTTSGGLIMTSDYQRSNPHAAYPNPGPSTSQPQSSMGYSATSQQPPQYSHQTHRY
T3 sequence (P24863 whole entry partner): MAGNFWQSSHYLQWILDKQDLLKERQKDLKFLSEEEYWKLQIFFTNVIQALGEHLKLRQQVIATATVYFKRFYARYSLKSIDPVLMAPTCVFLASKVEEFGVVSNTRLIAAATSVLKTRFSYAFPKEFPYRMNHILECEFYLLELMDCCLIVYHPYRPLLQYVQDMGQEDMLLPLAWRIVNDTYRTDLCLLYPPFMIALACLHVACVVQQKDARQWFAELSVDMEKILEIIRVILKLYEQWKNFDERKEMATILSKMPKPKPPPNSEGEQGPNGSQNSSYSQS

Nc1nc(N[C@H]2C[C@@H]3CC[C@H]2C3)sc1C(=O)c1ccccc1[N+](=O)[O-] (relative stereo) [MC180295]
IC50 [1]: 28 nM | IC50 [2]: 391 nM | IC50 [3]: 112 nM | IC50 [4]: 350 nM | IC50 [5]: 177 nM | IC50 [6]: 502 nM | IC50 [7]: 624 nM | IC50 [8]: 95.3 nM | IC50 [9]: 82.3 nM | IC50 [10]: 98.1 nM | IC50 [11]: 166 nM | IC50 [12]: 199 nM | IC50 [13]: 141 nM | IC50 [14]: 422 nM | IC50 [15]: 198 nM | IC50 [16]: 150 nM | IC50 [17]: 124 nM | IC50 [18]: 211 nM | IC50 [19]: 92 nM | IC50 [20]: 80 nM | IC50 [21]: 44 nM | IC50 [22]: 101 nM | IC50 [23]: 70.6 nM | IC50 [24]: 75.6 nM | IC50 [25]: 189 nM | IC50 [26]: 290 nM | IC50 [27]: 109 nM | IC50 [28]: 154 nM | IC50 [29]: 119 nM | IC50 [30]: 77 nM | IC50 [31]: 137 nM | IC50 [32]: 343 nM | IC50 [33]: 305 nM | IC50 [34]: 107 nM | IC50 [35]: 92.2 nM | IC50 [36]: 43 nM | IC50 [37]: 143 nM | IC50 [38]: 3 nM | IC50 [39]: 49 nM | IC50 [40]: 501 nM | IC50 [41]: 401 nM | IC50 [42]: 438 nM | IC50 [43]: 1180 nM
